Laboratory results from US20260070945A1, “MACROCYCLIC IMMUNOMODULATORS” (Bristol-Myers Squibb Company, priority 2022, published 2026).
*1 amine or outer side, *2 acyl side, *3 side chain or, on linkers, in order; H or OH if unused. Where a SMILES comes first, the peptide text is derived from it. Bridges are numbered along the chain shown (N, C = ends). [ ]: non-standard residue; d: D form. The star is where a group is joined. ξ: configuration not given here. Phe(4-COOH) = N[C@@H](Cc1ccc(C(=O)O)cc1)C(=O)O; Bip = N[C@@H](Cc1ccc(-c2ccccc2)cc1)C(=O)O; Phe(3-Me) = Cc1cccc(C[C@H](N)C(=O)O)c1; X2 = CC(C)=C[C@H](N[*:1])C(=O)[*:2]; Val(3-OH) = CC(C)(O)[C@H](N)C(=O)O; 4Pal = N[C@@H](Cc1ccncc1)C(=O)O; 3Thi = N[C@@H](Cc1ccsc1)C(=O)O; Cha = N[C@@H](CC1CCCCC1)C(=O)O; Cit = NC(=O)NCCC[C@H](N)C(=O)O; Ile(3ξ) = CCC(C)[C@H](N)C(=O)O; Thr(3ξ) = CC(O)[C@H](N)C(=O)O; 12Ado = NCCCCCCCCCCCC(=O)O; Carboxymethyl = O=C(O)C*; NMeA = CN[C@@H](C)C(=O)O; Orn = NCCC[C@H](N)C(=O)O; dDap = NC[C@@H](N)C(=O)O; Aun = NCCCCCCCCCCC(=O)O; Dab = NCC[C@H](N)C(=O)O; Dap = NC[C@H](N)C(=O)O; AEEA = NCCOCCOCC(=O)O; X12 = CC(C)(F)C(=O)*

biological target: T1, PD-1/PD-L1 interaction (PE-labeled human PD-L1-Ig binding to Jurkat cell line over-expressing human PD-1) (Homo sapiens, UniProt Q15116); experiment: Jurkat-PD-1 Cell Binding High-Content Screening Assay (CBA); settings: Jurkat-hPD-1 cells, PE-labeled PD-L1-Ig 20 nM final; read-out: Jurkat HPD1 PDL1 IC50
T1 construct: expressed in transfected cells; host or cells: Jurkat
How it was run: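 Jurkat cells overexpressing human PD-1 (8×10^3/well, DMEM + 10% FCS) preincubated with compound 2 h at 37 °C, then PE-labelled human PD-L1-Ig (20 nM final) for 1 h. Cells fixed in paraformaldehyde with Hoechst 33342; bound PD-L1 quantified by high-content imaging.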

T1 sequence (Q15116 25-288): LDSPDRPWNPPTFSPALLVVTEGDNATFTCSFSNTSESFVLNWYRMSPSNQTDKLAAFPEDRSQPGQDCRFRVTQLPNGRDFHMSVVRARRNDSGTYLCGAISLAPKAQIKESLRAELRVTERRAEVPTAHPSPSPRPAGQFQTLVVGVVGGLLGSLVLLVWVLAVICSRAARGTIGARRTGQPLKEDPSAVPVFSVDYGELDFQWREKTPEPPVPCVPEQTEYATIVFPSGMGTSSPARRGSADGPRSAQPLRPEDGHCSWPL

| IC50 [nM] | SMILES |
| --- | --- |
| 17 | CC(C)C[C@H]1NC(=O)[C@H](C)N(C)C(=O)[C@H](C(C)C)NC(=O)[C@H](Cc2ccc(-c3ccccc3)cc2)NC(=O)[C@H](C(C)C)NC(=O)[C@H](Cc2c[nH]c3ccccc23)NC(=O)[C@H](CC(=O)O)NC(=O)[C@H](Cc2ccc(OCC(=O)O)cc2)NC(=O)[C@H](CN)NC(=O)CSC[C@@H](C(=O)NCCOCCOCC(=O)N[C@@H](CN)C(=O)NCCCCCCCCCCC(=O)O)NC(=O)[C@H](C(C)O)NC(=O)[C@H](C(C)C)NC(=O)[C@H](CC2CCCCC2)NC(=O)[C@H](CCN)NC1=O (stereo partly drawn) [Example 2099] ({CH2CO}-[Dap]Y(Carboxymethyl)DWV[Bip]V[NMeA][dL][Dab][Cha]V[Thr(3ξ)]C[AEEA][Dap][Aun]-OH; thioether N-14) |
| 21.7 | Cc1cccc(C[C@@H]2NC(=O)[C@H](CC(=O)O)NC(=O)[C@H](Cc3ccc(OCC(=O)O)cc3)NC(=O)[C@H](C(C)O)NC(=O)CSC[C@@H](C(=O)N[C@H](CC(N)=O)C(=O)NCCCCCCCCCCC(=O)O)NC(=O)[C@H](C(C)O)NC(=O)[C@H](C(C)C)NC(=O)[C@H](CC3CCCCC3)NC(=O)[C@H](CCN)NC(=O)[C@@H](CC(C)C)NC(=O)[C@H](C)N(C)C(=O)[C@H](Cc3ccc(O)cc3)NC(=O)[C@H](Cc3ccc(-c4ccccc4)cc3)NC(=O)[C@H](Cc3ccc(O)cc3)NC2=O)c1 (stereo partly drawn) [Example 2314] ({CH2CO}-[Thr(3ξ)]Y(Carboxymethyl)D[Phe(3-Me)]Y[Bip]Y[NMeA][dL][Dab][Cha]V[Thr(3ξ)]C[dN][Aun]-OH; thioether N-14) |
| 94.4 | Cc1cccc(C[C@@H]2NC(=O)[C@H](CC(=O)O)NC(=O)[C@H](Cc3ccc(OCC(=O)O)cc3)NC(=O)[C@H](CCCNC(=O)C(C)(C)F)NC(=O)CSC[C@@H](C(=O)N[C@@H](CCCN)C(=O)N[C@@H](CO)C(=O)NCCCCCCCCCCCC(=O)O)NC(=O)[C@H](C(C)O)NC(=O)[C@H](C(C)C)NC(=O)[C@H](CC3CCCCC3)NC(=O)[C@H](CCN)NC(=O)[C@@H](CC(C)C)NC(=O)[C@H](C)N(C)C(=O)[C@H](CCCNC(N)=O)NC(=O)[C@H](Cc3ccc(-c4ccccc4)cc3)NC(=O)[C@H](Cc3ccc(O)cc3)NC2=O)c1 (stereo partly drawn) [Example 2401] ({CH2CO}-[Orn](X12)Y(Carboxymethyl)D[Phe(3-Me)]Y[Bip][Cit][NMeA][dL][Dab][Cha]V[Thr(3ξ)]C[Orn]S[12Ado]-OH; thioether N-14) |
| 9.5 | CC(C)C[C@H]1NC(=O)[C@H](C)N(C)C(=O)[C@H](C(C)C)NC(=O)[C@H](Cc2ccc(-c3ccccc3)cc2)NC(=O)[C@H](C(C)C)NC(=O)[C@H](Cc2c[nH]c3ccccc23)NC(=O)[C@H](CC(=O)O)NC(=O)[C@H](Cc2ccc(OCC(=O)O)cc2)NC(=O)[C@H](C(C)O)NC(=O)CSC[C@@H](C(=O)N[C@H](CC(N)=O)C(=O)NCCOCCOCC(=O)NCCCCCCCCCCCC(=O)O)NC(=O)[C@H](CCCN)NC(=O)[C@H](C(C)C)NC(=O)[C@H](CC2CCCCC2)NC(=O)[C@H](CCN)NC1=O (stereo partly drawn) [Example 2203] ({CH2CO}-[Thr(3ξ)]Y(Carboxymethyl)DWV[Bip]V[NMeA][dL][Dab][Cha]V[Orn]C[dN][AEEA][12Ado]-OH; thioether N-14) |
| 14.5 | CC(C)C[C@@H]1NC(=O)[C@H](Cc2c[nH]c3ccccc23)NC(=O)[C@H](CC(=O)O)NC(=O)[C@H](Cc2ccncc2)NC(=O)[C@H](Cc2ccc(OCC(=O)O)cc2)NC(=O)CSC[C@@H](C(=O)N[C@@H](CCCN)C(=O)NCCCCCCCCCCC(=O)O)NC(=O)[C@H](CCC(=O)O)NC(=O)[C@H](C(C)C)NC(=O)[C@H](CC2CCCCC2)NC(=O)[C@H](CCN)NC(=O)[C@@H](CC(C)C)NC(=O)[C@H](C)N(C)C(=O)[C@H](C(C)C)NC(=O)[C@H](Cc2ccc(-c3ccccc3)cc2)NC1=O [Example 1332] ({CH2CO}-Y(Carboxymethyl)[4Pal]DWL[Bip]V[NMeA][dL][Dab][Cha]VEC[Orn][Aun]-OH; thioether N-14) |
| 199 | Cc1cccc(C[C@@H]2NC(=O)[C@H](CC(=O)O)NC(=O)[C@H](Cc3cnc[nH]3)NC(=O)[C@H](Cc3ccc(OCC(=O)O)cc3)NC(=O)CSC[C@@H](C(=O)NCCCCCCCCCCC(=O)O)NC(=O)[C@H](CCCNC(N)=O)NC(=O)[C@H](C(C)C)NC(=O)[C@H](CC3CCCCC3)NC(=O)[C@H](CCN)NC(=O)[C@@H](CC(C)C)NC(=O)[C@H](C)N(C)C(=O)[C@H](Cc3ccc(O)cc3)NC(=O)[C@H](Cc3ccc(-c4ccccc4)cc3)NC(=O)[C@H](CCC(N)=O)NC2=O)c1 [Example 2257] ({CH2CO}-Y(Carboxymethyl)HD[Phe(3-Me)]Q[Bip]Y[NMeA][dL][Dab][Cha]V[Cit]C[Aun]-OH; thioether N-14) |
| 6 | CCC(C)[C@@H]1NC(=O)[C@H](Cc2ccc(-c3ccccc3)cc2)NC(=O)[C@H](C(C)C)NC(=O)[C@H](Cc2c[nH]c3ccccc23)NC(=O)[C@H](CC(=O)O)NC(=O)[C@H](Cc2ccc(OCC(=O)O)cc2)NC(=O)[C@H](Cc2ccc(OCC(=O)O)cc2)NC(=O)CSC[C@@H](C(=O)N[C@H](CC(N)=O)C(=O)NCCCCCCCCCCC(=O)O)NC(=O)[C@H](CCCCN)NC(=O)[C@H](C(C)C)NC(=O)[C@H](CC2CCCCC2)NC(=O)[C@H](CCN)NC(=O)[C@@H](CC(C)C)NC(=O)[C@H](C)N(C)C1=O (stereo partly drawn) [Example 2239] ({CH2CO}-Y(Carboxymethyl)Y(Carboxymethyl)DWV[Bip][Ile(3ξ)][NMeA][dL][Dab][Cha]VKC[dN][Aun]-OH; thioether N-14) |
| 20 | CCC(C)[C@@H]1NC(=O)[C@H](Cc2ccc(-c3ccccc3)cc2)NC(=O)[C@H](CC(C)C)NC(=O)[C@H](Cc2c[nH]c3ccccc23)NC(=O)[C@H](CC(=O)O)NC(=O)[C@H](Cc2ccc(C(=O)O)cc2)NC(=O)[C@H](Cc2ccc(OCC(=O)O)cc2)NC(=O)CSC[C@@H](C(=O)NCCOCCOCC(=O)N[C@H](CN)C(=O)NCCOCCOCC(=O)NCCCCCCCCCCC(=O)O)NC(=O)[C@H](CO)NC(=O)[C@H](C(C)C)NC(=O)[C@H](CC2CCCCC2)NC(=O)[C@H](CCN)NC(=O)[C@@H](CC(C)C)NC(=O)[C@H](C)N(C)C1=O (stereo partly drawn) [Example 2056] ({CH2CO}-Y(Carboxymethyl)[Phe(4-COOH)]DWL[Bip][Ile(3ξ)][NMeA][dL][Dab][Cha]VSC[AEEA][dDap][AEEA][Aun]-OH; thioether N-14) |
| 39.4 | CC(C)C[C@@H]1NC(=O)[C@H](Cc2c[nH]c3ccccc23)NC(=O)[C@H](CC(=O)O)NC(=O)[C@H](Cc2ccc(C(=O)O)cc2)NC(=O)[C@H](Cc2ccc(OCC(=O)O)cc2)NC(=O)CSC[C@@H](C(=O)N[C@@H](CCCCN)C(=O)NCCCCCCCCCCC(=O)O)NC(=O)[C@H](CN)NC(=O)[C@H](C(C)C)NC(=O)[C@H](CC2CCCCC2)NC(=O)[C@H](CCN)NC(=O)[C@@H](CC(C)C)NC(=O)[C@H](C)N(C)C(=O)[C@H](C(C)C)NC(=O)[C@H](Cc2ccc(-c3ccccc3)cc2)NC1=O [Example 1348] ({CH2CO}-Y(Carboxymethyl)[Phe(4-COOH)]DWL[Bip]V[NMeA][dL][Dab][Cha]V[Dap]CK[Aun]-OH; thioether N-14) |
| 10 | CCC(C)[C@@H]1NC(=O)[C@H](Cc2ccc(-c3ccccc3)cc2)NC(=O)[C@H](C(C)C)NC(=O)[C@H](Cc2c[nH]c3ccccc23)NC(=O)[C@H](CC(=O)O)NC(=O)[C@H](Cc2ccc(OCC(=O)O)cc2)NC(=O)[C@H](C(C)O)NC(=O)CSC[C@@H](C(=O)N[C@H](CC(N)=O)C(=O)NCCCCCCCCCCC(=O)O)NC(=O)[C@H](CCCCN)NC(=O)[C@H](C(C)C)NC(=O)[C@H](CC2CCCCC2)NC(=O)[C@H](CCN)NC(=O)[C@@H](CC(C)C)NC(=O)[C@H](C)N(C)C1=O (stereo partly drawn) [Example 2210] ({CH2CO}-[Thr(3ξ)]Y(Carboxymethyl)DWV[Bip][Ile(3ξ)][NMeA][dL][Dab][Cha]VKC[dN][Aun]-OH; thioether N-14) |
| 203 | Cc1cccc(C[C@@H]2NC(=O)[C@H](CC(=O)O)NC(=O)[C@H](Cc3ccc(OCC(=O)O)cc3)NC(=O)[C@@H]([C@H](C)O)NC(=O)CSC[C@@H](C(=O)NCCOCCOCC(=O)NCCCCCCCCCCC(=O)O)NC(=O)[C@H]([C@@H](C)O)NC(=O)[C@H](C(C)C)NC(=O)[C@H](CC3CCCCC3)NC(=O)[C@H](CCN)NC(=O)[C@@H](CC(C)C)NC(=O)[C@H](C)N(C)C(=O)[C@H](CCCNC(N)=O)NC(=O)[C@H](Cc3ccc(-c4ccccc4)cc3)NC(=O)[C@H](C(C)C)NC2=O)c1 [Example 1402] ({CH2CO}-[dT]Y(Carboxymethyl)D[Phe(3-Me)]V[Bip][Cit][NMeA][dL][Dab][Cha]VTC[AEEA][Aun]-OH; thioether N-14) |
| 26.7 | CC(C)=C[C@@H]1NC(=O)[C@H](Cc2cccc(C)c2)NC(=O)[C@H](CC(=O)O)NC(=O)[C@H](Cc2ccc(C(=O)O)cc2)NC(=O)[C@H](CCN)NC(=O)CSC[C@@H](C(=O)N[C@@H](CCN)C(=O)NCCCCCCCCCCC(=O)O)NC(=O)[C@H](CO)NC(=O)[C@H](C(C)(C)O)NC(=O)[C@H](CC2CCCCC2)NC(=O)[C@H](CCN)NC(=O)[C@@H](CC(C)C)NC(=O)[C@H](C)N(C)C(=O)[C@H](Cc2ccc(OCC(=O)O)cc2)NC(=O)[C@H](Cc2ccc(-c3ccccc3)cc2)NC1=O [Example 1303] ({CH2CO}-[Dab][Phe(4-COOH)]D[Phe(3-Me)][X2][Bip]Y(Carboxymethyl)[NMeA][dL][Dab][Cha][Val(3-OH)]SC[Dab][Aun]-OH; thioether N-14) |

same assay, conditions: PE-labeled PD-L1-Ig 20 nM final, Jurkat-hPD-1 cells; read-out: Jurkat HPD1 PDL1 IC50

| IC50 [nM] | SMILES |
| --- | --- |
| 12.2 | CC(=O)NCCCC[C@@H]1NC(=O)[C@H](C(C)C)NC(=O)[C@H](CC2CCCCC2)NC(=O)[C@H](CCN)NC(=O)[C@@H](CC(C)C)NC(=O)[C@H](C)N(C)C(=O)[C@H](CCC(N)=O)NC(=O)[C@H](Cc2ccc(-c3ccccc3)cc2)NC(=O)[C@H](CC(C)C)NC(=O)[C@H](Cc2c[nH]c3ccccc23)NC(=O)[C@H](CC(=O)O)NC(=O)[C@H](Cc2ccc(OCC(=O)O)cc2)NC(=O)[C@H](Cc2ccsc2)NC(=O)CSC[C@@H](C(=O)N[C@@H](CCN)C(=O)NCCOCCOCC(=O)NCCCCCCCCCCC(=O)O)NC1=O [Example 2503] ({CH2CO}-[3Thi]Y(Carboxymethyl)DWL[Bip]Q[NMeA][dL][Dab][Cha]VK(Ac)C[Dab][AEEA][Aun]-OH; thioether N-14) |
